{"source": "patent US20240335464A1", "about": "“ADMINISTRATION OF STING AGONIST, CHECKPOINT INHIBITORS, AND RADIATION” (Takeda Pharmaceutical Company Limited, priority 2020, published 2024)", "test_system": "EMT6 mouse breast carcinoma syngeneic tumor", "assay": "Study 3: EMT6 orthotopic (mammary fat pad) syngeneic tumor model, time-to-progression analysis", "format": "in vivo, female BALB/c mice", "description": "Study 3: EMT6 is a mouse breast carcinoma cell line. EMT6 mouse syngeneic tumor model was generated by orthotopic inoculation with 1.0×10^6 EMT6 cells (cell suspension) in seven to eight week old female BALB/c mice (Envigo Corp., Indianapolis, IN) in the mammary fat pad. When the mean tumor volume reached approximately 110 mm^3, the animals were randomized into one vehicle control and eight treatment groups (n=8/group). Mice were then treated with Compound No. 14, anti-mouse PD-1 (anti-mPD-1) (clone RMP1-14), and/or three fraction doses of 8 Gy of Radiation (8 Gy×3), or the respective control agents (PBS, isotype control antibody, and/or mock radiation) in the following combinations over an 11-day period. • Group 1: vehicle (PBS)+isotype control+mock radiation • Group 2: Compound No. 14 (1 mg/kg)+isotype control+mock radiation • Group 3: Compound No. 14 (0.25 mg/kg)+isotype control+mock radiation • Group 4: vehicle+anti-mPD-1+mock radiation • Group 5: vehicle+isotype control+radiation (8 Gy×3) • Group 6: Compound No. 14 (1 mg/kg)+isotype control+radiation (8 Gy×3) • Group 7: vehicle+anti-mPD-1+radiation (8 Gy×3) • Group 8: Compound No. 14 (1 mg/kg)+anti-mPD-1+radiation (8 Gy×3) • Group 9: Compound No. 14 (0.25 mg/kg)+anti-mPD-1+radiation (8 Gy×3)\nTumor growth and body weight were measured three times per week during the treatment and post-treatment periods. Mice were humanely euthanized once they had reached their humane endpoint. Mice with complete regressions were evaluated until day 74 or day 108.\nStudy 3: A 0.1 mg/mL stock solution of Compound No. 14 was formulated in PBS and administered IV based on exact animal body weight on each day of treatment, using a dosing volume of 10 mL/kg body weight. Final doses received were 0.25 mg/kg or 1.0 mg/kg. Compound No. 14 was administered on a Q3D schedule for 3 doses (Days 12, 15 and 18) in single agent treatment group and in combination treatment groups. Dose formulation of Compound No. 14 was prepared once and utilized for all three dosing days.\nFormulated anti-mPD-1 and isotype control were stored at 4 degree Celsius until subsequent dosing on Days 15 and 18. Anti-mPD-1 or isotype control was administered concurrent with Compound No. 14 or vehicle control on a Q3D schedule for 3 doses (Days 12, 15 and 18) in single agent treatment groups and in combination treatment groups.\nRadiation treatment for Study 3 was performed using focal beam radiation with volumetric image guidance from computed tomography scans SARRP (Small Animal Radiation Research Platform) irradiator (Xstrahl Inc. Suwanee, Ga). Animals received 2.42 Gy/min of radiation and approximately 3.3 min was needed to reach 8 Gy dose delivery. Animals received 8 Gy radiation on days 8, 9 and 10, with the last radiation dose given two days prior to the initiation of dosing with Compound No. 14 and/or anti-mPD-1 or relevant controls on Day 12. Animals were anesthetized during imaging and radiation treatment using 1-2% Isoflurane. For repeated daily radiation treatments, the same treatment plan was applied and adjusted for changes in animal positioning or target alteration over time.\nTumors were measured three times weekly using vernier calipers. Tumor volumes were calculated using standard equation: V=W^2×L/2, where V=volume, W=width, and L=length for the tumor. When mean tumor volumes reached approximately 60 mm^3 for Study 1, 75 mm^3 for Study 2, and 110 mm^3 for Study 3, mice were randomized into eight groups (n=10/group) in Studies 1 and 2, and nine groups (n=8/group) in Study 3. These groups were then dosed with vehicle (PBS), Compound No. 14, Radiation, anti-mPD-1 or isotype control, or combinations of these agents as described in Tables 1a, 2a, and 3a. Tumor size and body weight were measured three times a week for the duration of each study. […]", "data": [{"smiles": "Nc1ncnc2c1ncn2[C@@H]1O[C@@H]2COP(=O)(S)O[C@@H]3[C@H](O)[C@@H](COP(=O)(S)O[C@H]2[C@H]1F)O[C@H]3n1cc(F)c2c(=O)[nH]cnc21", "note": "(stereo partly shown) [Compound No. 14]", "values": [{"measurement": "Synergy Hazard Ratio (Weibull)", "setting": "Combination Gr 6 [Compound No. 14 (1 mg/kg) + isotype control + radiation (8 Gy × 3)] vs Gr 2 and Gr 5", "result": 0.00194}, {"measurement": "Mice remaining on study beyond day 53", "setting": "Gr 2: Compound No. 14 (1 mg/kg) + isotype control + mock radiation", "result": "no mice"}, {"measurement": "HR (Weibull), time to progression, pairwise comparison to vehicle group (Gr 1)", "setting": "Gr 2: Compound No. 14 (1 mg/kg) IV Q3D×3 + isotype control + mock radiation, TTP = tumor volume reaching 1000 mm^3", "result": 0.485}, {"measurement": "HR (Weibull), time to progression, pairwise comparison to vehicle group (Gr 1)", "setting": "Gr 3: Compound No. 14 (0.25 mg/kg) IV Q3D×3 + isotype control + mock radiation", "result": 0.37}, {"measurement": "HR (Weibull), time to progression, pairwise comparison to vehicle group (Gr 1)", "setting": "Gr 6: Compound No. 14 (1 mg/kg) + isotype control + radiation (8 Gy×3)", "result": 0.00091}, {"measurement": "Mice remaining on study as tumor-free survivors at end of study (Day 108)", "setting": "Group 6: Compound No. 14 (1 mg/kg) + isotype control + 8 Gy×3 Radiation, n=8/group", "result": 5, "unit": "mice"}, {"measurement": "Combination effect on TTP (synergy, in words)", "setting": "Group 6: Compound No. 14 (1 mg/kg) and 8 Gy×3 Radiation with isotype control", "result": "Statistically significant synergy"}]}]}
